# Measurements as given in patent publication US20190241535A1, “3-SUBSTITUTED CARBONYL-NAPHTHO[2,3-B]FURANE DERIVATIVE OR PHARMACEUTICALLY ACCEPTABLE SALT THEREOF” (Boston Biomedical, Inc., priority 2014, published 2019).
# Read-outs that look alike come from different tables or passages of the source.
# Columns and labels:
# Test 3: solubility test = format: physicochemical; settings: kinetic from dmso stock, 1% DMSO, HPLC
# Experimental: Each 15 μL of each test sample (10 mM DMSO solution) was dispensed into 4 Utubes on a 96 well rack. Then, each sample was evaporated to dryness with a rotary evaporator. 3 μL of DMSO was added to each dried sample to be re-dissolved. And, 300 μL of pH 7.4 buffer was added to the 2 wells and 300 μL of pH 1.2 buffer was added to the other 2 wells. After shaking each sample solution, the samples were still stood. Then, each sample solution was centrifuged to remove insoluble matter, and 100 μL of the supernatant was picked up on a 96 well plate. Separately, 2 μL of each test sample (10 mM DMSO solution) was dispensed on a 96 well plate, and diluted with 198 μL of 50% acetonitrile to prepare each 100 μM standard solution. Further, the 100 μM standard solution was diluted with 50% acetonitrile to prepare each 10 μM standard solution. The above test samples for the solubility test and the two kinds of the standard samples were analyzed with a HPLC. The solubility of each test sample was calculated as an area ratio per the standard solutions.
# [1] = Test 4: concentration of the test compounds in plasma; format: in vivo; settings: mouse, po, 25 mg/kg, 25 mg/kg po
# Experimental: Administration method: The test compound scaled to a given weight was suspended in 0.5% methylcellulose to prepare an administration solution. A mouse was weighed, and the administration solution was orally administered to the mouse depending on its weight.
# Blood sampling method: EDAT-2K was added to a blood collection tube, into which the blood of the mouse was sampled. The sampled blood was centrifuged to give plasma.
# Preparation of standard solution: The test compound scaled to 1 mg was dissolved in 10 mL of MeOH in a volumetric flask to prepare a 100 μg/mL standard solution.
# Measure of the concentration in plasma: The 100 μg/mL standard solution was diluted with MeOH to prepare a sample for calibration curve which has the desired concentration. To 50 μL of the sample for calibration curve was added 50 μL of the blank plasma to prepare a sample for plasma calibration curve. To 50 μL of the plasma sample treated with the test compound was added 50 μL of MeOH to prepare a sample for analyzing plasma. To each 100 μL of the sample for plasma calibration curve and the sample for analyzing plasma was added 150 μL of MeOH containing an internal standard respectively. The internal standard used herein was bezafibrate, the concentration of which was 200 nM. Each 5 μL of the samples was analyzed with an LC-MS. The calibration curve was prepared based on the peak ratio of MS peak area of the test sample per that of the internal standard, and the concentration of the sample for plasma calibration curve. The concentration of the test compound in each sample was calculated based on the peak ratio of each sample, and the calibration curve.
# FaDu cell [2] = experiment: Test 2: inhibition of forming cancer cell sphere (Sphere IC50); format: cell-based; settings: Homo sapiens, 96 h, ultra-low attachment plate, serum-free sphere medium, 4 days, CellTiter-Glo
# Experimental: (§1) HCT-116 cell, HT-29 cell, and FaDu cell were obtained from the American Type Culture Collection (ATCC). HCT-116 cell and HT-29 cell were cultivated at 37° C. in the presence of 5% CO2 using McCoy's 5a medium containing 10% fetal bovine serum (FBS), and 1% penicillin/streptomycin; and FaDu cell was cultivated at 37° C. in the presence of 5% CO2 using MEM containing 10% FBS, 1% non-essential amino acid, 1% sodium pyruvate, and 1% penicillin/streptomycin. Each of HCT-116 cell, HT-29 cell, and FaDu cell was seeded on 384 Wells Black Clear Bottom Ultra-Low Attachment Microplate (Corning Cat. No. 3827) in 350-800 cells/well, with DMEM/F12 medium containing 2% B27 supplement (GIBCO), 20 ng/mL epidermal growth factor (EGF) (peprotech), 10 ng/mL basic fibroblast growth factor (bFGF) (peprotech), 5 μg/mL insulin (Sigma), and 1% penicillin/streptomycin. Each test sample was added thereto to adjust the final concentration thereof in DMSO to 0.1% and the test wells were incubated for 4 days. And then, the viable cell count of each sample was measured using CellTiter-Glo® Luminescent Cell Viability Assay (Promega), and the concentration to inhibit the cell growth in each test sample by 50% was calculated (Sphere IC50 Value;μM).
# HCT-116 cell [3] = experiment: as above; format: cell-based; settings: Homo sapiens, 96 h, ultra-low attachment plate, serum-free sphere medium, 4 days, CellTiter-Glo
# Experimental: as §1
# HT-29 cell [4] = experiment: as above; format: cell-based; settings: Homo sapiens, 96 h, ultra-low attachment plate, serum-free sphere medium, 4 days, CellTiter-Glo
# Experimental: as §1
# FaDu cell [5] = experiment: Test 1: growth inhibition in cancer cell (Bulk IC50); format: cell-based; settings: Homo sapiens, 96 h, adherent culture, incubated 4 days, CellTiter-Glo
# Experimental: (§2) HCT-116 cell, HT-29 cell, and FaDu cell were obtained from the American Type Culture Collection (ATCC). HCT-116 cell and HT-29 cell were cultivated at 37° C. in the presence of 5% CO2 using McCoy's 5a medium containing 10% fetal bovine serum (FBS), and 1% penicillin/streptomycin; and FaDu cell was cultivated at 37° C. in the presence of 5% CO2 using MEM containing 10% FBS, 1% non-essential amino acid, 1% sodium pyruvate, and 1% penicillin/streptomycin. Each cell was seeded on μClear-plate black 384 wells (Greiner bio-one Cat. No. 781091) in 300-600 cells/well, and then each test sample was added thereto to adjust the final concentration thereof in DMSO to 0.1% and the test wells were incubated for 4 days. And then, the viable cell count of each sample was measured using CellTiter-Glo® Luminescent Cell Viability Assay (Promega), and the concentration to inhibit the cell growth in each test sample by 50% was calculated (Bulk IC50 Value; μM).
# HCT-116 cell [6] = experiment: as above; format: cell-based; settings: Homo sapiens, 96 h, adherent culture, incubated 4 days, CellTiter-Glo
# Experimental: as §2
# HT-29 cell [7] = experiment: as above; format: cell-based; settings: Homo sapiens, 96 h, adherent culture, incubated 4 days, CellTiter-Glo
# Experimental: as §2
# [8] = animal 1, read-out: Concentration in plasma, animal 1
# [9] = animal 2, read-out: Concentration in plasma, animal 2
# [10] = animal 3, read-out: Concentration in plasma, animal 3
# [11] = mean of 3, read-out: Concentration in plasma, mean
smiles,measurement,setting,value
"CN1CCN(C(=O)c2c(C(F)(F)F)oc3c2C(=O)c2ccccc2C3=O)CC1 [Example 8, 3-(4-Methylpiperazine-1-carbonyl)-2-(trifluoromethyl)naphtho[2,3-b]furan-4,9-dione]",solubility,"Test 3: solubility test; aqueous buffer, pH 7.4 buffer, read-out: Solubility pH 7.4",138 µg/mL
same,solubility,"Test 3: solubility test; simulated gastric fluid, pH 1.2 buffer, read-out: Solubility pH 1.2",160 µg/mL
same,concentration at 2 hr,[1]; [8],508 ng/mL
same,concentration at 2 hr,[1]; [9],473 ng/mL
same,concentration at 2 hr,[1]; [10],384 ng/mL
same,concentration at 2 hr,[1]; [11],455 ng/mL
same,concentration at 6 hr,[1]; [8],351 ng/mL
same,concentration at 6 hr,[1]; [9],2800 ng/mL
same,concentration at 6 hr,[1]; [10],334 ng/mL
same,concentration at 6 hr,[1]; [11],1160 ng/mL
same,IC50,FaDu cell [2],500 nM
same,IC50,HCT-116 cell [3],530 nM
same,IC50,HT-29 cell [4],640 nM
same,IC50,FaDu cell [5],500 nM
same,IC50,HCT-116 cell [6],530 nM
same,IC50,HT-29 cell [7],640 nM
